Laboratory results: patent US10759817B2, “Gadolinium complex, method for synthesis of the gadolinium complex, and MRI contrast agent including the gadolinium complex” (Kyungpook National University Industry-Academic Cooperation …, priority 2018, dated 2020)

Test: Relaxibity (r1, r2) measurement by MRI at 1.5 T and 9.4 T
Assay type: physicochemical
Text: In accordance with the present disclosure, the relaxibity (unit mM^−1 s^−1) is obtained using an inversion recovery according to the inversion time (T1). More specifically, signal intensities at varying inversion times T1 are acquired. Then, the signal intensities are subjected to a minimum non-linear fitting (NLF) to obtain the relaxation time (s). Then, the relaxibity (unit mM^−1 s^−1) is obtained using the relaxation time (s) and the concentration (mM) of the contrast agent. The gadolinium complex represented by the Chemical Formula 1 has the relaxibity defined as above which is at least 4 mM^−1 s^−1 not only in the normal magnetic field range of 1.5 T but also in the high magnetic field of 7 T or greater.
The relaxibity for the gadolinium complex GdL^b as obtained above was measured at magnetic field strengths of 1.5 T and 9.4 T respectively as follows.
T1 relaxation time was checked using inversion recovery according to various T1 (inversion times). […] The T2 relaxation time is determined as follows. […] For TEs, mean values of pixels for various spin-echo measurements were calculated using a nonlinear fitting method. Then, the T2 relaxation time was calculated using the spin-echo measurements. The relaxibity (mM^−1s^−1) was calculated as an inverse of a relaxation time (s) for the contrast agent 1 mM. We calculated r1 using the T1 relaxation time and r2 using the T2 relaxation time. […]

- Relaxibity r1 (magnetic field 1.5 T): 4.06 mM⁻¹ s⁻¹
- Relaxibity r1 (magnetic field 9.4 T): 2.96 mM⁻¹ s⁻¹
Structure (SMILES): O=C([O-])CN1CCN(CC(=O)[O-])CCN([C@H](CO)[C@H](O)CO)CCN(CC(=O)[O-])CC1.[Gd+3] (racemic) [Gadovist ®, gadobutrol]
